Patent US7569695B2, “Dyes for the detection or quantification of desirable target molecules” (Enzo Life Sciences, Inc., priority 2005, dated 2009)

Legend:
[1] = biological target: BSA (Bos taurus, UniProt P02769); assay: Fluorescence enhancement of dyes upon binding to a protein (BSA); details: ratio of fluorescence (emission maxima) with BSA vs without, 1 μM dye, 150 μg BSA; for Fluorescence Enhancement with SDS: 10 mM TRIS pH 7.5, 0.05% SDS; for Fluorescence Enhancement without SDS: 10 mM TRIS pH 7.5, no SDS
BSA, sequence (P02769 25-607): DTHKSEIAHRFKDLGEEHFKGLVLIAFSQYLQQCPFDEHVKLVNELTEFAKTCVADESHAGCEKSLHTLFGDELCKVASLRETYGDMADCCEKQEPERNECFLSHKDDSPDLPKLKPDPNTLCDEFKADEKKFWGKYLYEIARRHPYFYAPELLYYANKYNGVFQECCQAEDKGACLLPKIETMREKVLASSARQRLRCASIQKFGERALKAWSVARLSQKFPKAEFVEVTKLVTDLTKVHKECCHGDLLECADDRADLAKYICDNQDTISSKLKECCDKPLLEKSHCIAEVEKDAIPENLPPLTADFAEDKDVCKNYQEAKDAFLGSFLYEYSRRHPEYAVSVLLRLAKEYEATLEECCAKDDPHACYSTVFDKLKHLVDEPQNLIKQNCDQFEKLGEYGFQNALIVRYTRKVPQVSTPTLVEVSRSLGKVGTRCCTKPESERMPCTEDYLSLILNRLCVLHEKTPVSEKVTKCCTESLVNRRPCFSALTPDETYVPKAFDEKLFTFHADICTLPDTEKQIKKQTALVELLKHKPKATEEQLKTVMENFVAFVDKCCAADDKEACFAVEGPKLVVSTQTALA
Method: Some of the dyes of the preceding examples were tested for changes in fluorescence upon binding to a protein (BSA). 1 μM of each dye was mixed with 150 μg of BSA in 10 mM TRIS (pH 7.5) with and without 0.05% SDS. Measurements were carried out on a standard fluorometer with and without BSA being present. Ratios were then calculated for the amount of fluorescence (emission maxima) in the presence of BSA compared to its absence.

[2] = tested on: 78 bp amplicon from the anti-sense C construct; assay: Amplification of nucleic acids in the presence of dye using a standard PCR machine (Example 34); format: biochemical; details: for amplicon synthesis (gel analysis, FIG. 2): 20 cycles
Method: The experiment shown in Example 33 was repeated using a standard PCR machine for synthesis to see if the effects observed in Example 33 was dependent upon the rapid heating and cooling steps used in the Light Cycler.
A master mixture was made up of: • 500 µl of 2× PCR mix described in example 33 • 20 µl of 25 mM MgCl2 • 175 µl of DEPC treated H2O • 10 ul of 1 u/l ung (Epicentre) • 10 µl of 10 mg/ml BSA (New England Biolabs, Beverly, Mass.) • 10 l Taq polymease (Perkin Elmer)+10 µl of TaqStart (Clontech) PCR conditions were 2.5 µl of target template+2.0 l of dye was added to 15.5 µl of Master mixture incubated at 45° C. for 10 minutes and then amplified using cycles of: • a) 94° C. for 30 seconds • b) 65° C. for 30 seconds • c) 72° C. for 1 minute
A duplicate set of samples was amplified with one set being taken out after 20 cycles of amplification and the second set undergoing 40 cycles. […] The other effect previously observed was also seen, i.e. non-target amplicon synthesis seen in the no Dye reaction (lane 1) was reduced with the 1:200 dilution of SYBR Green and the 1:10 dilution of Dye 109 again repeating the results of Example 33.

[3] = tested on: 78 bp amplicon from the anti-sense C construct; assay: Amplification of nucleic acids on the Light Cycler in the presence of dye (Example 33); format: biochemical
Method: A target template was amplified on the Light Cycler (Roche) in the presence of various amounts of Dye 109 from Example 14. As a control, various amounts of SYBR Green (Molecular Probes, Eugene, Oreg.) were also included. The template was a 1:500 dilution of a 78 bp amplicon made in a previous reaction from the anti-sense C construct described in Liu et al. 1997 (J. Virol. 71: 4079-4085). A 2×PCR mix was made up of 20 mM Tris pH 8.3, 50 mM KCl, 4 mM MgCl2, 0.4 mM dCTP, 0.4 mM dGTP, 0.4 mM dATP, 0.8 mM dUTP, […] and […].
The Forward Primer sequence is comprised of 20 nucleotides: 5′ […] 3′ (SEQ ID NO: 1). It is an artificial sequence comprising a fusion of human Ul and HIV sequences. Bases 1-7 (CATGATC) of the first sequence are derived from plasmid pHSD-4 and comprise sequences from the human Ul gene. Bases […] (GATCCGGATGGGAGGTG) of the second sequence are derived from a region of the BAL strain of HIV containing the Tat/Rev splice acceptor site.
The Reverse Primer sequence is comprised of 22 nucleotides: 5′[…] (SEQ ID NO: 2). It is an artificial sequence comprising a fusion of human Ul and HIV sequences. Bases 1-11 (GCACATCCGGA) of the first sequence are derived from plasmid pHSD-4 and comprise sequences from the human Ul gene. Bases […] (GATCCGGATGGGAGGTG) of the second sequence are derived from a region of the BAL strain of HIV containing the Tat/Rev splice acceptor site.
The 78 bp amplicon synthesized with Forward Primer (SEQ ID NO: 1) and Reverse Primer (SEQ ID NO: 2) has the following sequence: 5′ […] 3′ (SEQ ID NO: 3). It is an artificial sequence comprising a fusion of human Ul and HIV sequences. Bases 1-11 (GCACATCCGGA) and 68-78 (TCCGGATGTGC) are derived from plasmid pHSD-4 and comprise sequences from the human Ul gene. Bases […] are derived from a region of the BAL strain of HIV containing the Tat/Rev splice acceptor site.
A master mixture was made up of: • 350 µl of 2×PCR mix described above • 14 µl of 25 mM MgCl2 • 122.5 µl of DEPC treated H2O • 14 ul of 1 u/l ung (Epicentre) • 7 µl of 10 mg/ml BSA (New England Biolabs, Beverly, Mass.) • 7 l Taq polymease (Perkin Elmer)+7 µl of TaqStart (Clontech) • 2.5 µl of target template+2.0 l of various dilutions of dyes were added to 15.5 µl of Master mixture, incubated at 45° C. for 10 minutes and then amplified by: • 1) Melting • 2 minutes @ 95° C. • 2) Cycling • a) Denaturation step: 0 seconds @ 95° C. • b) Annealing step: 5 seconds @ 69° C. for first cycle; subsequent cycles were each reduced by 0.5° C. until 65° C. was reached and all annealing steps in further cycles were carried out at this temperature • c) Extension step: 5 seconds @ 72° C. • 3) After completion of 56 cycles, all samples were maintained at 4° C. until analyzed.
After the amplification reactions were finished, the samples were analyzed by gel electrophoresis. For SYBR Green, the recommended reaction concentration is 1:10,000. As such, the amplification products shown in lanes 5 and 6 using 2 l of […] dilution in a 20 l reaction (final=1:8,000) is approximately representative of the product from the standard procedure. For Dye 109, the reactions are listed in terms of dilutions of a stock of Dye 109 with an OD reading of 200 taken at 495 nm. […] However, when lower dilutions of the dyes were added there was no inhibition of the process.

[4] = tested on: anti-sense C amplicon; assay: Amplification of various amounts of target with fixed dye levels, 29 cycles (Example 37); format: biochemical
Method: In the previous experiments, a fixed amount of target was amplified in the presence of varying level of dyes. The eventual use of these dyes is going to be with a fixed amount of dye and varying levels of targets. As such, an experiment was carried out using previously determined optimal levels of dyes and various amounts of input target (again using the anti-sense C as a model). • Dilution 1=1:100,000 • Dilution 2=1:1,000,000 • Dilution 3=1:10,000,000 • Dilution 4=1:100,000,000 • Dilution 5=1:1,000,000,000 • Dilution 6=1:10,000,000,000
Selected amounts of target template were amplified on the Light Cycler (Roche) in the presence of various amounts of Dye 122, Dye 109a and SYBR Green.
A master mixture was made up of: • 380 l of 2×PCR mix described in Example 33 • 15.2 l of 25 mM MgCl2 • 190.0 l of DEPC treated H2O • 7.6 l of 10 mg/ml BSA (New England Biolabs, Beverly, Mass.) • 7.6 l Taq polymease (Perkin Elmer)+7.6 l of TaqStart (Clontech)
2.0 l of target template (1:50,000 dilution of the antisense C amplicon)+2.0 l of various dye concentrations were added to 16 µl of Master mixture and amplified as described previously in Example 33 stopping after 29 cycles. Dye additions were from the 1:1000 dilution of SYBR Green, 1:30 of Dye 109a and 1:30 of Dye 122.
At the highest input level (Dil 2 1:1,000,000 dilution of amplicon) no evidence of amplification is seen in the sample without dye.

[5] = tested on: 78 bp amplicon of the anti-sense C construct; assay: Amplification on the Light Cycler in the presence of Dye 122 and 109a, 19 cycles (Example 35); format: biochemical
Description: A target template was amplified on the Light Cycler (Roche) in the presence of various amounts of SYBR Green and Dye 122 from Example 32. In addition, a byproduct from the silica gel chromatography of Dye 109 in step (g) of Example 14 was also used. This compound is believed to have a single protonation of one of the amines of Dye 109 and as such will be termed Dye 109a. The stock of Dye 122 was OD=200 measured at 488 nm and the stock of Dye 109a was OD=200 measured at 498 nm. The template was a 1:50,000 dilution of the 78 bp amplicon of the anti-sense C construct described previously. • A master-mixture was made up of: • 350 µl of 2×PCR mix described in Example 33 • 14 l of 25 mM MgCl2 • 175.0 l of DEPC treated H2O • 7 l of 10 mg/ml BSA (New England Biolabs, Beverly, Mass.) • 7 l Taq polymease (Perkin Elmer)+7 l of TaqStart (Clontech)
2.0 l of target template+2.0 l of various dye dilutions were added to 16 µl of Master mixture, and then amplified as described previously in Example 33 except that the incubation at 45° C. for 10 minutes was eliminated since ung was not used for this series of amplifications. The amplification was stopped after 19 cycles. The results of this series of amplifications are seen in FIG. 3. […] For Dye 109a, similar features were seen where 1:10 was inhibitory (lane 18) and 1:30 was optimal (lanes 19 and 20).

[6] = tested on: 78 bp amplicon of the anti-sense C construct; assay: Amplification on the Light Cycler with closer series of dye dilutions, 17 cycles (Example 36); format: biochemical; details: a fairly broad spectrum of dye dilutions
Method: A series of dilutions that were closer together was carried out for both Dye 109a and Dye 122. The target template was amplified on the Light Cycler and the template was the 1:50,000 dilution of the 78 bp amplicon of the anti-sense C construct described previously.
A master mixture was made up as described previously in Example 35.
2.0 l of target template (1:50,000 dilution of the antisense C amplicon)+2.0 l of various dye concentrations were added to 16 µl of Master mix and then amplified as described previously in Example 33 and stopping after 17 amplification cycles.

Row | SMILES | Fluorescence Enhancement with SDS [1] | Fluorescence Enhancement without SDS [1] | other results
1 | C[n+]1c(/C=C/c2cc3c4c(c2)CCCN4CCC3)sc2cc(S(=O)(=O)N3CCCCC3)ccc21 [Dye 101] | 140 | 33 | 
2 | CCn1c2ccccc2c2cc(/C=C/c3sc4cc(S(=O)(=O)N5CCCCC5)ccc4[n+]3CCCCS(=O)(=O)[O-])ccc21 [Dye 103] | 10 | None | 
3 | CN(C)CCN(C)C1=C/C(=C\c2sc3cc(S(=O)(=O)N4CCCCC4)ccc3[n+]2C)c2ccccc2N1c1ccccc1 [Dye 109] |  |  | amplicon synthesis (gel analysis, FIG. 2) ([2]; 1:10 dilution of Dye 109, lanes 12 and 13): a single discrete band; amplicon synthesis (gel analysis, FIG. 2) ([2]; 1:15 dilution of Dye 109, lanes 14 and 15): lesser amounts of synthesis; amplicon synthesis (gel analysis, FIG. 2) ([2]; 1:20 and 1:25 dilutions of Dye 109, lanes 16/17 and 18/19): faint bands; non-target amplicon synthesis compared to the no Dye reaction ([2]; 40 cycles, 1:10 dilution of Dye 109): reduced; synthesis of target derived amplicons compared to the reaction without any dye ([3]; 1:25 dilution of Dye 109 stock (OD 200 at 495 nm), lanes 11 and 12): enhancement of overall synthesis of target derived amplicons; synthesis of non-target derived amplicons ([3]; 1:25 dilution of Dye 109 stock, lanes 11 and 12): elimination or suppression of the synthesis of non-target derived amplicons; detection of real time synthesis in the Light Cycler ([3]; data not shown): could be used for this purpose; amplification (gel analysis, FIG. 1) ([3]; undiluted Dye 109 stock (OD 200 at 495 nm), 56 cycles): strong inhibition of amplification
4 | CCCCCCN(CCCCCC)c1ccc(C=Cc2sc3cc(S(=O)(=O)N(CCCCCC)CCCCCC)ccc3[n+]2C)cc1 [Dye 113] | 33 | None | 
5 | CCCCCCN(CCCCCC)c1ccc(C=Cc2sc3cc(S(=O)(=O)N4CCCCC4)ccc3[n+]2CCCCS(=O)(=O)[O-])cc1 [Dye 114] | 70 | 6 | 
6 | CCCCCCN(CCCCCC)c1ccc(C=Cc2cc[n+](CCCP(=O)(OCC)OCC)c3ccccc23)cc1.[Br-] [Dye 115] | 78 | 100 | 
7 | CCOP(=O)(CCC[n+]1ccc(C=Cc2ccc3c(c2)c2ccccc2n3CC)c2ccccc21)OCC.[Br-] [Dye 116] | None | 12 | 
8 | CCCCN(CCCC)c1ccc(C=Cc2cc[n+](CCCP(=O)(OCC)OCC)c3ccccc23)cc1.[Br-] [Dye 119] | 92 | 95 | 
9 | CN(C)CCN(C)C1=C/C(=C\c2sc3cc(S(=O)(=O)N4CCCCC4)ccc3[n+]2C)c2ccccc2N1c1ccccc1 [Dye 122] |  |  | amplification product (gel analysis, FIG. 5) ([4]; Dil 2 (1:1,000,000) target input, 1:30 dilution of dye): strong prominent band; amplification product (gel analysis, FIG. 5) ([4]; target inputs diluted 10-100× more than Dil 2, 1:30 dilution of dye): visible bands; amplification (gel analysis, FIG. 3) ([5]; 1:10 dilution of dye stock (OD=200)): inhibitory; amplification (gel analysis, FIG. 3) ([5]; 1:30 dilution of dye stock (OD=200)): the best; amplification (gel analysis, FIG. 3) ([5]; next dye dilutions (1:100 etc.)): less amplification; amplification (gel analysis, FIG. 4) [6]: strong enhancement effect
